Measurements reported in article PMC7724566, “Prospects for Clinical Development of Stat5 Inhibitor IST5-002: High Transcriptomic Specificity in Prostate Cancer and Low Toxicity In Vivo” (Cancers, 2020).

Tested on: athymic nude mice
Experiment: Chronic toxicity study (28 days), plasma biochemistry
Type: in vivo
Conditions: i.p. 28 days; for A-G Ratio / ALT / AST / Albumin / Alk.Ptase / Bile Acid / Chol / TBIL / Globulin / BUN: plasma; for Globulin: in g/dL (unit assumed); for BUN: in mg/dL (unit assumed)
Procedure: Forty athymic nude mice (8 weeks) (Crl:NU/NCr-Foxn1n) of either sex (20 males and 20 females) were randomized into four groups (n = 5/group) for either sex. The randomization of the mice was carried out based on their baseline body weight measured on day 0. IST5 or vehicle (0.3% hydroxypropyl cellulose, (Sigma-Aldrich, MO, St. Louis, MO, USA) were administered to the mice by i.p. injection for 28 days. The mice were observed daily for behavior, and body weights were measured on every 3rd day throughout the 28-day experimental protocol. The monitoring was started immediately after the compound administration and continued for 2 h for any acute signs of toxicity. In addition, the mice were monitored daily for any signs of toxicity using several clinical parameters. The clinical signs that were taken into consideration were as follows: 1) weight loss: rapid weight loss ([…]) or, weight loss of extended period time ([…]); 2) rapid growth of mass or masses; 3) paralysis or paresis (partial paralysis); 4) frank bleeding from any orifice; 5) lesions interfering with eating or drinking; 6) diarrhea (non-formed/soft stool or diarrhea liquid stool); 6) loss of body temperature; 7) appearance: rough coat, porphyrin staining (red or brown staining around eyes, nose, or along front paws, distended abdomen, alopecia; 8) eyes: ocular discharge, pale appearance, distinct icterus (jaundice or yellowing of the eyes); 9) respiration: coughing or wheezing, rales or crackling in the lungs, respiration increased or labored; 10) behavioral: hunched posture, huddling in a corner, lethargy, avoiding cagemate(s), head tilt, tremors (head, body, tail), spasticity (stiff muscles), ataxia (loss of voluntary muscle movement), seizures or convulsions, circling, persistent self-induced trauma, chattering or vocalizations, loss of startle response, loss of righting reflex. The clinical chemistry parameters measured were the same as those used for the acute toxicity study.

`O=P(O)(O)OCC1OC(n2cnc3c(NCc4ccccc4)ncnc32)C(O)C1O` (stereo not drawn) [IST5] gave a BW (10 mg/kg) of 22.5 ± 1.1 gm, an HCT (10 mg/kg) of 0.43 ± 0.02 L/L and an A-G Ratio (10 mg/kg) of 1.93 ± 0.08. For the same compound, the ALT (10 mg/kg) was 50.4 ± 3.71 U/L, the AST (10 mg/kg) was 329.9 ± 30.9 U/L and the Albumin (10 mg/kg) was 2.69 ± 0.05 g/dL. For the same compound, the Alk.Ptase (10 mg/kg) was 51.3 ± 0.72 U/L, the “Bile Acid” value (10 mg/kg) was 21.0 ± 12.7 µmol/dL and the Chol (10 mg/kg) was 65.0 ± 2.09 mg/dL. For the same compound, the TBIL (10 mg/kg) was 0.26 ± 0.02 mg/dL, the Globulin (10 mg/kg) was 1.41 ± 0.04 and the BUN (10 mg/kg) was 20.5 ± 0.82. It also gave a BW (30 mg/kg) of 23.5 ± 0.6 gm, an HCT (30 mg/kg) of 0.45 ± 0.01 L/L and an A-G Ratio (30 mg/kg) of 1.9 ± 0.11. It also gave an ALT (30 mg/kg) of 45.2 ± 3.76 U/L, an AST (30 mg/kg) of 336 ± 57.1 U/L and an Albumin (30 mg/kg) of 2.74 ± 0.07 g/dL. For the same compound, the Alk.Ptase (30 mg/kg) was 53.0 ± 1.93 U/L, the “Bile Acid” value (30 mg/kg) was 2.39 ± 0.32 µmol/dL and the Chol (30 mg/kg) was 70.3 ± 1.38 mg/dL. It also gave a TBIL (30 mg/kg) of 0.21 ± 0.01 mg/dL, a Globulin (30 mg/kg) of 1.47 ± 0.07 and a BUN (30 mg/kg) of 25 ± 1.32. The BW (100 mg/kg) was 23.5 ± 0.9 gm, the HCT (100 mg/kg) was 0.43 ± 0.03 L/L and the ALT (100 mg/kg) was 50.9 ± 3.83 U/L. The AST (100 mg/kg) was 327 ± 4.03 U/L, the Albumin (100 mg/kg) was 2.74 ± 0.04 g/dL and the Alk.Ptase (100 mg/kg) was 53.3 ± 1.76 U/L. The “Bile Acid” value (100 mg/kg) was 2.98 ± 0.29 µmol/dL, the Chol (100 mg/kg) was 75.9 ± 2.06 mg/dL and the BUN (100 mg/kg) was 23.0 ± 0.07.
